Tests used:
[1] = Inhibition of snail beta-mannosidase using p-nitrophenyl glycoside as substrate assessed as release of p-nitrophenol measured by spectrometric assay; design: species or system Helix pomatia
[2] = biological target: T1, Tissue alpha-L-fucosidase (Bos taurus) (UniProt Q2KIM0); assay: Inhibition of bovine kidney alpha-L-fucosidase using p-nitrophenyl glycoside as substrate assessed as release of p-nitrophenol at 1000 uM measured by spectrometric assay relative to control; type: tissue-based
T1 sequence (whole entry): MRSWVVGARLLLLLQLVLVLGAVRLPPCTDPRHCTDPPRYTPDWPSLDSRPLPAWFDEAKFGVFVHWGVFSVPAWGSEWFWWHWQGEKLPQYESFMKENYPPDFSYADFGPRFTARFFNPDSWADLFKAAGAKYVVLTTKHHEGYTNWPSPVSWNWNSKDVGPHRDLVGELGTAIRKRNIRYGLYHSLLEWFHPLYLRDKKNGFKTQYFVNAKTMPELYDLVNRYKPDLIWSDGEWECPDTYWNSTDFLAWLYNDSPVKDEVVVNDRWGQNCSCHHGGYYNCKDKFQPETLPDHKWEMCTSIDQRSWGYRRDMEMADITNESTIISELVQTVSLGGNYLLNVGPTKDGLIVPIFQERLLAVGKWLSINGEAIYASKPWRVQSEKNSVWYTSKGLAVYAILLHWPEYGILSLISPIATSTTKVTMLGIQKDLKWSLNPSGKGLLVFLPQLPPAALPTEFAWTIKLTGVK

[3] = biological target: T2, Alpha-mannosidase (Canavalia ensiformis) (UniProt C0HJB3); assay: Inhibition of jack bean alpha-mannosidase using p-nitrophenyl glycoside as substrate assessed as release of p-nitrophenol at 1000 uM measured by spectrometric assay relative to control
T2 sequence (whole entry): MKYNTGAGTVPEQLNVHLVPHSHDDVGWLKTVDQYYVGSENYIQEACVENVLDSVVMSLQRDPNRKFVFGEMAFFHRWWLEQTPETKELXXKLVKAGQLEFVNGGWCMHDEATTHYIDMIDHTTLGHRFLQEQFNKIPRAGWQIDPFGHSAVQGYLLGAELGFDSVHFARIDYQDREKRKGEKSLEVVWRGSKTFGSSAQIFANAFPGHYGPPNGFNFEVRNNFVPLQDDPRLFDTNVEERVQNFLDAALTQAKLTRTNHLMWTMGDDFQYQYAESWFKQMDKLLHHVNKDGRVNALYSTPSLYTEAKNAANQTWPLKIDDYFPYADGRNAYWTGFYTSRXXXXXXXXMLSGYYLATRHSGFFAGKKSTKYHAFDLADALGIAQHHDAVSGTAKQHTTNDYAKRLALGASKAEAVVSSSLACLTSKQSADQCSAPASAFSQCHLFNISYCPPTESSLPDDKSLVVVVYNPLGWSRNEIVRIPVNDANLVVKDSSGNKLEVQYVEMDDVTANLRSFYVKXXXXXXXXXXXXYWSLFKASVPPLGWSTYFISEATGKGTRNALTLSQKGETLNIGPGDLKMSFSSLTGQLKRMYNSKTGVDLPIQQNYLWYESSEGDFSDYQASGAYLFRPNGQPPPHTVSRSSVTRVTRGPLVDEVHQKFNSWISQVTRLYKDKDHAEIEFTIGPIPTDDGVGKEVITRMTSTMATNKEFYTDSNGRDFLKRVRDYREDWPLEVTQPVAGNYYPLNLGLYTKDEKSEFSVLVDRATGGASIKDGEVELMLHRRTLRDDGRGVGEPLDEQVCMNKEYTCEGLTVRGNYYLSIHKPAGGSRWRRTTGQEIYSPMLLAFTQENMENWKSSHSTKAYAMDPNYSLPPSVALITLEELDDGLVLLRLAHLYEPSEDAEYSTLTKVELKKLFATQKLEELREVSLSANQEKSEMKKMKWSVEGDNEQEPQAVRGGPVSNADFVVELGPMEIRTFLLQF

[4] = Inhibition of bovine liver beta-galactosidase using p-nitrophenyl glycoside as substrate assessed as release of p-nitrophenol measured by spectrometric assay; type: tissue-based, Bos taurus
Sus scrofa = species on record: Sus scrofa; assay: Inhibition of porcine kidney alpha-trehalase using p-nitrophenyl glycoside as substrate assessed as release of p-nitrophenol at 1000 uM measured by spectrometric assay relative to control
[5] = Inhibition of jack bean alpha-mannosidase using p-nitrophenyl glycoside as substrate assessed as release of p-nitrophenol measured by spectrometric assay; design: species or system Canavalia ensiformis
[6] = Inhibition of porcine kidney alpha-trehalase using p-nitrophenyl glycoside as substrate assessed as release of p-nitrophenol measured by spectrometric assay; design: species or system Sus scrofa
[7] = Inhibition of rice alpha-glucosidase using p-nitrophenyl glycoside as substrate assessed as release of p-nitrophenol measured by spectrometric assay; design: species or system Oryza sativa; conditions: read-out: IC50
[8] = Inhibition of Penicillium decumbens alpha-L-rhamnosidase using p-nitrophenyl glycoside as substrate assessed as release of p-nitrophenol measured by spectrometric assay
[9] = biological target: T3, Tissue alpha-L-fucosidase (Bos taurus, UniProt Q2KIM0); assay: Inhibition of bovine kidney alpha-L-fucosidase using p-nitrophenyl glycoside as substrate assessed as release of p-nitrophenol measured by spectrometric assay
T3 sequence (Q2KIM0 whole entry): T1 sequence (whole entry)

Alpha-galactosidase = Alpha-galactosidase (Coffea arabica, UniProt Q42656); assay: Inhibition of coffee beans alpha-galactosidase using p-nitrophenyl glycoside as substrate assessed as release of p-nitrophenol measured by spectrometric assay
Bos taurus [10] = species on record: Bos taurus; assay: Inhibition of bovine liver beta-galactosidase using p-nitrophenyl glycoside as substrate assessed as release of p-nitrophenol at 1000 uM measured by spectrometric assay relative to control
Helix pomatia = assay: Inhibition of snail beta-mannosidase using p-nitrophenyl glycoside as substrate assessed as release of p-nitrophenol at 1000 uM measured by spectrometric assay relative to control
Aspergillus niger = assay: Inhibition of Aspergillus niger amyloglucosidase using p-nitrophenyl glycoside as substrate assessed as release of p-nitrophenol at 1000 uM measured by spectrometric assay relative to control
[11] = biological target: Beta-glucuronidase (Escherichia coli (strain K12)) (UniProt P05804); assay: Inhibition of Escherichia coli beta-glucuronidase using p-nitrophenyl glycoside as substrate assessed as release of p-nitrophenol at 1000 uM measured by spectrometric assay relative to control
Bos taurus [12] = species on record: Bos taurus; assay: Inhibition of bovine liver beta-glucosidase using p-nitrophenyl glycoside as substrate assessed as release of p-nitrophenol at 1000 uM measured by spectrometric assay relative to control; type: tissue-based
[13] = biological target: Alpha-galactosidase (Coffea arabica) (UniProt Q42656); assay: Inhibition of coffee beans alpha-galactosidase using p-nitrophenyl glycoside as substrate assessed as release of p-nitrophenol at 1000 uM measured by spectrometric assay relative to control
[14] = biological target: T4, Sucrase-isomaltase, intestinal (Rattus norvegicus, UniProt P23739); assay: Inhibition of rat intestinal isomaltase using p-nitrophenyl glycoside as substrate assessed as release of p-nitrophenol measured by spectrometric assay
Prunus dulcis = assay: Inhibition of almond beta-glucosidase using p-nitrophenyl glycoside as substrate assessed as release of p-nitrophenol at 1000 uM measured by spectrometric assay relative to control
[15] = Inhibition of Aspergillus niger amyloglucosidase using p-nitrophenyl glycoside as substrate assessed as release of p-nitrophenol measured by spectrometric assay
[16] = biological target: T4, Sucrase-isomaltase, intestinal; assay: Inhibition of rat intestinal sucrase using p-nitrophenyl glycoside as substrate assessed as release of p-nitrophenol measured by spectrometric assay; conditions: read-out: IC50
[17] = Inhibition of almond beta-glucosidase using p-nitrophenyl glycoside as substrate assessed as release of p-nitrophenol measured by spectrometric assay; design: species or system Prunus dulcis
[18] = Inhibition of rat intestinal maltase using maltose as substrate assessed as release of D-glucose measured by spectrometric assay
[19] = Inhibition of bovine liver beta-glucosidase using p-nitrophenyl glycoside as substrate assessed as release of p-nitrophenol measured by spectrometric assay; design: species or system Bos taurus
Penicillium decumbens = assay: Inhibition of Penicillium decumbens alpha-L-rhamnosidase using p-nitrophenyl glycoside as substrate assessed as release of p-nitrophenol at 1000 uM measured by spectrometric assay relative to control
Beta-glucuronidase = Beta-glucuronidase (Escherichia coli (strain K12), UniProt P05804); assay: Inhibition of Escherichia coli beta-glucuronidase using p-nitrophenyl glycoside as substrate assessed as release of p-nitrophenol measured by spectrometric assay
Chain of Beta-glucuronidase (P05804 whole entry): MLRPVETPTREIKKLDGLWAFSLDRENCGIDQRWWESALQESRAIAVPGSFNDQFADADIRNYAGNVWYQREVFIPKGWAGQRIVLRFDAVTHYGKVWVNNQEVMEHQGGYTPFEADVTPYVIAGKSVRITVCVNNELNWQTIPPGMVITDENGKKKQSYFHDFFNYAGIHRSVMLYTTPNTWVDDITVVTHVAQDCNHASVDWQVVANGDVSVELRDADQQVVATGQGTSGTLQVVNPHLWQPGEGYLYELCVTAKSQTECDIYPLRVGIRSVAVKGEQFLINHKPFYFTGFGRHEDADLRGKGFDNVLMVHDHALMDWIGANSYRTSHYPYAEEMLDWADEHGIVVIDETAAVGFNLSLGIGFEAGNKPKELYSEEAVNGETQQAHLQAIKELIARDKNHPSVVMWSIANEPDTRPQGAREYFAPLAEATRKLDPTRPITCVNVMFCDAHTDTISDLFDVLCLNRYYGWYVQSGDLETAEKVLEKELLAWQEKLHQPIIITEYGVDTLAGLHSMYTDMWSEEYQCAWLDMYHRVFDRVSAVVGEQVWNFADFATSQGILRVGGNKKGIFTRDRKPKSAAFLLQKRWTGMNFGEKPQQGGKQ

Chain of Beta-glucuronidase (Escherichia coli (strain K12)) (P05804 whole entry, looked up): as the sequence (P05804 whole entry) above
Chain of Alpha-galactosidase (Coffea arabica) (Q42656 16-378 limits assumed): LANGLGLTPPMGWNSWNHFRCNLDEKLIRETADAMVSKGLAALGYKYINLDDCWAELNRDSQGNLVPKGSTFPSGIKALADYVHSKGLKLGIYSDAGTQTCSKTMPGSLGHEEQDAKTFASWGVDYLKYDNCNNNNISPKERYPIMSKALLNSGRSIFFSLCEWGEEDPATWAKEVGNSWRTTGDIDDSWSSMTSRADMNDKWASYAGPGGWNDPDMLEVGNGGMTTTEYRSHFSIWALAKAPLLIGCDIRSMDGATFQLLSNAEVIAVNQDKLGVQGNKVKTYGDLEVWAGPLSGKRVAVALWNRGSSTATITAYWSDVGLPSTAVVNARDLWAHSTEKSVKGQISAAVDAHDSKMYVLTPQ
Chain of Alpha-galactosidase (Q42656 whole entry): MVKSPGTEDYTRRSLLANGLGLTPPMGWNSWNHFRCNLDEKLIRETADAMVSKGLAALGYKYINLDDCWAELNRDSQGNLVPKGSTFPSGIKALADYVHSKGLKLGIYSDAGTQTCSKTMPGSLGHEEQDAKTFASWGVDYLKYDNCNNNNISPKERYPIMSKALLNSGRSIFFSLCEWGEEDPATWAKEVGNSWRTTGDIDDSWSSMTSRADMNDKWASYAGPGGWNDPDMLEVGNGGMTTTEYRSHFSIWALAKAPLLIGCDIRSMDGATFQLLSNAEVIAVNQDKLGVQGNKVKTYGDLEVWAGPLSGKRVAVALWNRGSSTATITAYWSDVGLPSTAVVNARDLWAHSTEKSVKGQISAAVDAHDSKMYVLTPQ
T4 sequence (P23739 1-1013 limits assumed): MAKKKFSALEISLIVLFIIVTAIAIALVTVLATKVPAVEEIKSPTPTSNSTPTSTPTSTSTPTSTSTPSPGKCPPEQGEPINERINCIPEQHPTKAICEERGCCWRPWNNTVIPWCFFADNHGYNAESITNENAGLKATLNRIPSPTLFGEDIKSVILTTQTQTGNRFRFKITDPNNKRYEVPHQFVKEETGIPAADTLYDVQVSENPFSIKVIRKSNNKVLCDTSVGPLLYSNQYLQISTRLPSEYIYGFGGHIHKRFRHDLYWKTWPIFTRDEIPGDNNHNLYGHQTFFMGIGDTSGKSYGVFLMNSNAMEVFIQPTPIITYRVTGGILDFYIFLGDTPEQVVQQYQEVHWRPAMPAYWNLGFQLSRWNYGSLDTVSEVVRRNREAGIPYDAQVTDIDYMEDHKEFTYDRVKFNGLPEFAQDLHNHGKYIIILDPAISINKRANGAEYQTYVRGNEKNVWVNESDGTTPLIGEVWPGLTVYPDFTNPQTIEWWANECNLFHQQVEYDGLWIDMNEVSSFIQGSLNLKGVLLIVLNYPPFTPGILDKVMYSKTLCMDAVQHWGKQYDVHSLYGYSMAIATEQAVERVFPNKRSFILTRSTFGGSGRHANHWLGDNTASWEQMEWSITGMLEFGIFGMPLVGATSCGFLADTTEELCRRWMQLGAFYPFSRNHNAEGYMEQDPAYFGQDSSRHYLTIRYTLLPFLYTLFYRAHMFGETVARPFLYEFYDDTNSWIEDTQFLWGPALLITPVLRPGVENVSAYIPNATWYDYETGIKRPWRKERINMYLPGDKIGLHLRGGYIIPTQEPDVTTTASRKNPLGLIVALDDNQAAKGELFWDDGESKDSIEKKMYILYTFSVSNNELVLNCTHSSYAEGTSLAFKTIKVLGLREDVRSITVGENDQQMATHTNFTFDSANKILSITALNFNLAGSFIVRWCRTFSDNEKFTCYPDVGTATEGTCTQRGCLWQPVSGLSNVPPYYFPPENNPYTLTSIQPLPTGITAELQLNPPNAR
T4 sequence (P23739 1014-1841 limits assumed): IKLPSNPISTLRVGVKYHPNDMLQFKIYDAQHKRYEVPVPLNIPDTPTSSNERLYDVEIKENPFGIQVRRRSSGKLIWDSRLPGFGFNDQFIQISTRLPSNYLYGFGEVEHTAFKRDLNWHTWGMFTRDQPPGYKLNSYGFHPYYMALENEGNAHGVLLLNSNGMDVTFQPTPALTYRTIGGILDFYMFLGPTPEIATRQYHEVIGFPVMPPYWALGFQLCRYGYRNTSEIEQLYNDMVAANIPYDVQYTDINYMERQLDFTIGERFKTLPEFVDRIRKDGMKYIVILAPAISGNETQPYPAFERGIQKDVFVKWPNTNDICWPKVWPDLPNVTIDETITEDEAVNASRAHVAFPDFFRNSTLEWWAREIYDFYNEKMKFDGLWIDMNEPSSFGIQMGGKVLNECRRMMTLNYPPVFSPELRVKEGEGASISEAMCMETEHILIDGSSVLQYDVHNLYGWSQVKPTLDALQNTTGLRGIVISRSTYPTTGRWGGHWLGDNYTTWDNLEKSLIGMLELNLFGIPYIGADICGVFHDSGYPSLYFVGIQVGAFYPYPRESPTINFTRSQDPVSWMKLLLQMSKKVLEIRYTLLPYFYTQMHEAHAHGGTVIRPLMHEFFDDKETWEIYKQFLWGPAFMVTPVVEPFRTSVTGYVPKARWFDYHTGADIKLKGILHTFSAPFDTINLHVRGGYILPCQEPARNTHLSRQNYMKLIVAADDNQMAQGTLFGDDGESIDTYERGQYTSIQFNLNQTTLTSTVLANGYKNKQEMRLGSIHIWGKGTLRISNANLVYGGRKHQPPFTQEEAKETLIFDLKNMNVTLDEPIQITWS

Compound	IC50 [1]	inhibition [2] [%]	inhibition [3] [%]	IC50 [4]	inhibition (Sus scrofa) [%]	IC50 [5]	IC50 [6]	IC50 [7] [µM]	IC50 [8]	IC50 [9]	IC50 (Alpha-galactosidase)	inhibition (Bos taurus [10]) [%]	inhibition (Helix pomatia) [%]	inhibition (Aspergillus niger) [%]	inhibition [11] [%]	inhibition (Bos taurus [12]) [%]	inhibition [13] [%]	inhibition (Prunus dulcis) [%]	IC50 [15]	IC50 [16] [µM]	also measured
CCC[C@]1(CO)NC[C@H](O)[C@@H](O)[C@@H]1O.Cl	Not Active	9.9	7.9	Not Active	4.3	Not Active	Not Active	0.088	Not Active	Not Active	Not Active	15.7	1.5	1.9	8.6	10.3	11	5.7	Not Active	0.2	IC50 ([14]; read-out: IC50): 1.7 µM; IC50 [17]: Not Active; IC50 [18]: 0.096 µM; IC50 [19]: Not Active; inhibition (Penicillium decumbens): 3.6%; IC50 (Beta-glucuronidase): Not Active
C[C@@]1(CO)NC[C@H](O)[C@@H](O)[C@@H]1O.Cl	Not Active	13.8	9.6	Not Active	7.5	Not Active	Not Active	38	Not Active	Not Active	Not Active	14.1	2	2.7	17.7	3.6	9.3	9.5	Not Active	25	IC50 [14]: Not Active; IC50 [17]: Not Active; IC50 [18]: 22 µM; IC50 [19]: Not Active; inhibition (Penicillium decumbens): 0%; IC50 (Beta-glucuronidase): Not Active
CC[C@@]1(CO)NC[C@H](O)[C@@H](O)[C@@H]1O.Cl	Not Active	2.1	2.4	Not Active	1.5	Not Active	Not Active	14	Not Active	Not Active	Not Active	18.4	1.1	0	0.4	9.2	3.5	6.2	Not Active	8.8	IC50 ([14]; read-out: IC50): 50 µM; IC50 [17]: Not Active; IC50 [18]: 6.6 µM; IC50 [19]: Not Active; inhibition (Penicillium decumbens): 0%; IC50 (Beta-glucuronidase): Not Active
CCCCCCC[C@@]1(CO)NC[C@H](O)[C@@H](O)[C@@H]1O.Cl	Not Active	0	2.4	Not Active	4.2	Not Active	Not Active	9.9	Not Active	Not Active	Not Active	28.4	0	11.9	2.5	16.5	8	6.9	Not Active	89	IC50 [14]: Not Active; IC50 [17]: Not Active; IC50 [18]: 19 µM; IC50 [19]: Not Active; inhibition (Penicillium decumbens): 0%; IC50 (Beta-glucuronidase): Not Active

Source: ChEMBL document CHEMBL4828725 (Eur J Med Chem, 2021)
